Columns and labels:
CT26 MSH2-/- MMRd cells = assay: viability assay of MMR-deficient MSH2 KO CT26 cells; type: cell-based, mouse; conditions: MSH2 KO cells compared with parental CT26
CT26 colon cancer cells = assay: pre-treated CT26 cells implanted in mice randomized to anti PD-1 or IgG isotype control; type: in vivo, mouse
From the text: FIGS. 4A-B. Treatment of colon cancer cells with TMZ and cisplatin induces a high frameshift load leading to the spontaneous immuno-rejection of tumors in a preclinical mouse model. FIG. 4A. […] Treatment with either anti PD-1 or the IgG isotype control was commenced when the tumors reached a volume of 200 mm^3. […] The MSH2 KO cell line was used as a positive control for PD-1 blockade. FIG. 4B. Tumors were subjected to whole exome sequencing at 250x and immunoediting was studied by comparing mutation losses before and after engraftment.
Experiments were performed to examine the effect of PD-1 blockade on the growth of tumors generated following injection of mice with tumor cells that had been pre-treated with either a vehicle control, TMZ alone, cisplatin alone, or TMZ/CDDP combination. 1 million cells from control or treatment groups (pre-treated for 8 weeks) were implanted subcutaneously into mice (n=10) and mice were then randomly assigned to either an anti PD-1 treatment group (treated with anti PD-1 at 6 mg/kg twice weekly when tumor reached 200 mm^3) or an IgG isotype control group. CT26 MSH2 KO cells were used as a positive control (FIG. 4). […] For tumors generated following injection of cells pre-treated with the combination of both temozolomide and cisplatin, out of 10 implanted tumors only one was not rejected (9 out of 10 were rejected). […]

[1] = system: CT26 colon cancer cell line
Protocol: CT26 cells were treated for 8 weeks by low dose TMZ, CDDP or TMZ/CDDP combination (drugs were removed one week before the experiment).

## [NH2][Pt]([NH2])([Cl])[Cl] [CDDP, cisplatin]
CT26 MSH2-/- MMRd cells
  cytotoxicity: Higher activity
CT26 colon cancer cells; anti PD-1 6 mg/kg twice weekly from 200 mm^3
  effect of PD-1 blockade compared with isotype control on tumors from pre-treated cells: no effect of PD-1 blockade
CT26 colon cancer cells; cells pre-treated 8 weeks, 1 week wash out
  tumor growth compared to control: no significant difference in tumor growth compared to control
[1]
  sensitivity of CT26 cells to single agent: sensitive
